# Test results taken from US4916122A, “3'-Azido-2',3'-dideoxyuridine anti-retroviral composition” (University of Georgia Research Foundation, Inc., priority 1987, dated 1990).
# Values joined by “and” are separate entries in the source; they are usually repeats but may differ in a detail not shown here. Equal values may be shown once. Read-outs that look alike come from different tables or passages of the source.
# What was measured:
# Friend Leukemia virus = details: Ostertag et al.; Krieg et al.; cited from earlier work
# uninfected cells = details: CS-87 compared with AZT
# HIV-1 (Strain HTLV-III) = assay: Antiviral activity against HIV-1 in ATH-8 cells (Table 4); details: Human immunodeficiency virus 1, 240 h, read-out: ATH-8 (MIC)
# NIH Swiss mice = details: oral 0.5 mg/ml ad libitum, 67 days
# HIV = details: in vitro
# HIV-1 and SIV = assay: Effect of delayed treatment on replication of HIV-1 and SIV in human PBM cells (FIG. 7); type: cell-based, HIV-1; SIV
# Text: (§1) A comparison of the differences in median effective an tiviral concentrations between human, non-human primate, and murine retroviruses is shown in Table 5. […] A further comparison of the activity of several nucleoside analogues, including CS-87, against HIV-1 and SIV in human PBM cells is shown in FIG. 6. The effect of delayed treatment with AZT, CS-87 or CS-91 on the replication of HIV-1 and SIV in human PBM cells is shown in FIGS. 7a, b, and c.
# HIV-1 p24 = assay: Inhibition of HIV replication in human PBM cells, p24 RIA (Table 3)
# HIV-1 (strain LAV) = assay: Inhibition of HIV replication in human PBM cells, reverse transcriptase assay (Table 3)
# SIV (SMM) = assay: Median effective antiviral concentration against SIV (Table 5); type: cell-based, simian immunodeficiency virus; details: Simian immunodeficiency virus
# Text: as §1
# HIV p24 and p41 = assay: Inhibition of HIV replication in human PBM cells, western blot analysis (Table 3)
# [1] = preliminary results, Yarchoan et al. 1986; cited from earlier work
# [2] = test system: Mouse ecotropic (Cas-Br-M); assay: Median effective antiviral concentration against mouse ecotropic virus (Table 5); type: cell-based, murine retrovirus; details: unidentified retrovirus
# Text: as §1
# HIV (LAV-1) = assay: Median effective antiviral concentration against HIV (Table 5); type: cell-based; details: Human immunodeficiency virus 1
# Friend (EY-10) = assay: Median effective antiviral concentration against Friend virus (Table 5); type: cell-based, murine retrovirus; details: unidentified retrovirus, in Mus musculus
# Text: as §1
# HIV-1 = assay: microbe, parasite or virus in culture; details: Human immunodeficiency virus 1, PBMC, read-out: PBM (EC50)
# HIV-1 (Strain RF-II) = assay: Antiviral activity against HIV-1 in HeLa-T4 cells (Table 4); type: cell-based; details: Human immunodeficiency virus 1, HeLaT4, HIV-1
# Protocol: Evaluation in Hela-T4 cells infected with HIV-1 (Strain RF-II)
# HeLa-T4 cells (described in Cell 47: 333, 1986) are maintained in Dulbecco's Modified Eagle medium containing 10% inactivated fetal calf serum, penicillin (100 U/ml) and streptomycin (100 μg/ml), and the antibiotic G418 (1 mg/ml). The cells are seeded onto a 96-well plate (2×10^4 cells/well per 0.1 ml), and two days later, the supernatant is removed and the virus added. After adsorption for 45 minutes, the inoculum is removed and the cells washed with phosphate-buffered saline (pH 7.2). The compounds at different concentration are then added in maintenance medium (containing 2% serum). […] The cells are fixed with a mixture of 5% glacial acetic acid/95% Ethanol for 15 minutes, and then stained with Giemsa (20% in PSB) for 4 hours. The plates are then washed and dried. The foci are then enumerated with a dissecting stereomicroscope.
# Host cell α-DNA pol [3] = molecular target: T1, Host cell α-DNA pol (Homo sapiens, UniProt P09884); details: 5'-triphosphate; according to Furman et al.; read-out: Host cell α-DNA pol K1; cited from earlier work
# T1 sequence (P09884 1-1462): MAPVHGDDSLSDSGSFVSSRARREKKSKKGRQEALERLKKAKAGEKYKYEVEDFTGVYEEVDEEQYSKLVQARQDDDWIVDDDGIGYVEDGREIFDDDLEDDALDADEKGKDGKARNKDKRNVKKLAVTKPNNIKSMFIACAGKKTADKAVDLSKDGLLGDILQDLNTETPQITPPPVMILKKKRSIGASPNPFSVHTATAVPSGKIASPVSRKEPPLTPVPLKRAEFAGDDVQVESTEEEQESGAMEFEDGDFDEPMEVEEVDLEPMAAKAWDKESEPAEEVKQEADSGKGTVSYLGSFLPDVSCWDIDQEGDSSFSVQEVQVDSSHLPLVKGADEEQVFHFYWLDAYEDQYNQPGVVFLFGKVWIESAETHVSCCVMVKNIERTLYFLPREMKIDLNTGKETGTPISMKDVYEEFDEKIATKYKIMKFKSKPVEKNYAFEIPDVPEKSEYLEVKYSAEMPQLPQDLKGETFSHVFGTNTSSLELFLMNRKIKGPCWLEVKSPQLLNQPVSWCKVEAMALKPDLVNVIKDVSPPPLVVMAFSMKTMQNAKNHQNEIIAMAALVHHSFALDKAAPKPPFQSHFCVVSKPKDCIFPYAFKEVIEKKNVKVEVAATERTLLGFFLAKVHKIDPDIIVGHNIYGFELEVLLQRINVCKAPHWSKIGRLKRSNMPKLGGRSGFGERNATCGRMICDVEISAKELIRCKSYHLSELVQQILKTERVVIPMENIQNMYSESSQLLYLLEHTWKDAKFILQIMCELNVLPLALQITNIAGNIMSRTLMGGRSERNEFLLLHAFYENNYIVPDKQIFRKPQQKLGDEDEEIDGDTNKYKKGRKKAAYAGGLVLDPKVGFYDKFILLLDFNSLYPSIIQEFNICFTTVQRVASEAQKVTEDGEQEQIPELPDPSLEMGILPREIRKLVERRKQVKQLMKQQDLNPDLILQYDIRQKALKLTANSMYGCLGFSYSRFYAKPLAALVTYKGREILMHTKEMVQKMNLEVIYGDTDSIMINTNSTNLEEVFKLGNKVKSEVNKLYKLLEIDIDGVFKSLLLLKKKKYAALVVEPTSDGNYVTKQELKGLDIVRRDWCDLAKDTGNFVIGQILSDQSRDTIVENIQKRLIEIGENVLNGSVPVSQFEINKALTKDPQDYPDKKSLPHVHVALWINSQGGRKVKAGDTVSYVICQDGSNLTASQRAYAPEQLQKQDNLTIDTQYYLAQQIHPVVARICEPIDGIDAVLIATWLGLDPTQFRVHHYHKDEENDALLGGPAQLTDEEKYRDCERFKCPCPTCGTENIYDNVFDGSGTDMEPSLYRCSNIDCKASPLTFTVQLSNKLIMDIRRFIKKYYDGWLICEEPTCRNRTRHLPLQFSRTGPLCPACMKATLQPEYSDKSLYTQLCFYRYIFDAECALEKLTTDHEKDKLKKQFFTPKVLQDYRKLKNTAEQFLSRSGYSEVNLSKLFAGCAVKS
# HIV RT = molecular target: T2, HIV RT (Human immunodeficiency virus type 1 group M subtype B, UniProt P03367); details: 5'-triphosphate; according to Furman et al.; read-out: HIV RT K1; cited from earlier work
# T2 construct: HIV reverse transcriptase
# Host cell α-DNA pol [4] = molecular target: T1, Host cell α-DNA pol; assay: Effect of 5'-triphosphates on alpha DNA polymerase (Table 6); type: biochemical; details: K1 host cell α-DNA pol / K1 HIV RT
# [5] = Effect on weight of uninfected BALB/c mice (FIG. 3); type: in vivo, mouse; details: compared with each other and control
# [6] = individual mouse, listed as AzT
# [7] = individual mouse, listed as Azt
# [8] = Human immunodeficiency virus 1, PBMC, in Homo sapiens, read-out: RIA p24 % Inhibition
# [9] = Human immunodeficiency virus 1, PBMC, in Homo sapiens, read-out: RT % Inhibition (corrected)
smiles,measurement,setting,value
"Cc1cn([C@H]2C[C@H](N=[N+]=[N-])[C@@H](CO)O2)c(=O)[nH]c1=O [AZT, 3'-azido-3'-deoxythymidine, reference compound]",activity against Friend Leukemia virus,Friend Leukemia virus,activity against Friend Leukemia virus
same,cytotoxicity / toxicity in words,uninfected cells,much greater toxicity
same,MIC,HIV-1 (Strain HTLV-III),0.32 µM
same,Hct,NIH Swiss mice; Mean of group,28.7%
same,Hgb,NIH Swiss mice; Mean of group,9.2 g/dL
same,MCH,NIH Swiss mice; Mean of group,21.4 pg
same,MCHC,NIH Swiss mice; Mean of group,32.0 g/dL
same,MCV,NIH Swiss mice; Mean of group,66.8 fL
same,PLT,NIH Swiss mice; Mean of group,1.2 × 10^6
same,RBC,NIH Swiss mice; Mean of group,4.3 × 10^6
same,RDW,NIH Swiss mice; Mean of group,23.4%
same,WBC,NIH Swiss mice; Mean of group,6.6 × 10^3
same,Hct,NIH Swiss mice; [6],28.4% and 35.0%
same,Hgb,NIH Swiss mice; [6],9.1 g/dL and 11.0 g/dL
same,MCH,NIH Swiss mice; [6],22.1 pg and 21.2 pg
same,MCHC,NIH Swiss mice; [6],32.1 g/dL and 31.4 g/dL
same,MCV,NIH Swiss mice; [6],68.9 fL and 67.4 fL
same,PLT,NIH Swiss mice; [6],1.076 × 10^6 and 1.292 × 10^6
same,RBC,NIH Swiss mice; [6],4.1 × 10^6 and 5.2 × 10^6
same,RDW,NIH Swiss mice; [6],29.9% and 17.8%
same,WBC,NIH Swiss mice; [6],4.5 × 10^3 and 8.8 × 10^3
same,Hct,NIH Swiss mice; [7],21.1% and 30.1%
same,Hgb,NIH Swiss mice; [7],6.9 g/dL and 9.6 g/dL
same,MCH,NIH Swiss mice; [7],20.5 pg and 21.6 pg
same,MCHC,NIH Swiss mice; [7],32.6 g/dL and 31.9 g/dL
same,MCV,NIH Swiss mice; [7],62.9 fL and 67.8 fL
same,PLT,NIH Swiss mice; [7],1.187 × 10^6 and 1.112 × 10^6
same,RBC,NIH Swiss mice; [7],3.4 × 10^6 and 4.4 × 10^6
same,RDW,NIH Swiss mice; [7],24.6% and 21.3%
same,WBC,NIH Swiss mice; [7],5.2 × 10^3 and 7.9 × 10^3
same,"activity against HIV, in words",HIV,somewhat more active than CS-87
same,effect of delayed treatment on replication of HIV-1 and SIV,HIV-1 and SIV,time of administration is critical to the effectiveness of the treatment
same,RIA p24 (Dupont kit),HIV-1 p24; 0.01 μM,4.39 ng/mL
same,RIA p24 (Dupont kit),HIV-1 p24; 0.1 μM,0.51 ng/mL
same,RIA p24 (Dupont kit),HIV-1 p24; 1 μM,0.18 ng/mL
same,inhibition at 0.01 µM,HIV-1 p24; [8],81.8%
same,inhibition at 0.1 µM,HIV-1 p24; [8],97.9%
same,inhibition at 1 µM,HIV-1 p24; [8],99.3%
same,RT: Mean DPM/ml on day 5 (3 day old cells),HIV-1 (strain LAV); 0.01 μM,"65,208 DPM/ml"
same,RT: Mean DPM/ml on day 5 (3 day old cells),HIV-1 (strain LAV); 0.1 μM,"6,144 DPM/ml"
same,RT: Mean DPM/ml on day 5 (3 day old cells),HIV-1 (strain LAV); 1 μM,"2,304 DPM/ml"
same,inhibition at 0.01 µM,HIV-1 (strain LAV); [9],89.8%
same,inhibition at 0.1 µM,HIV-1 (strain LAV); [9],99.1%
same,inhibition at 1 µM,HIV-1 (strain LAV); [9],99.7%
same,EC50,SIV (SMM),2 nM
same,Western blot p24 (band intensity),HIV p24 and p41; 0.01 μM,2+
same,Western blot p41 (band intensity),HIV p24 and p41; 0.01 μM,1+
same,Western blot p24 (band intensity),HIV p24 and p41; 0.1 μM,0
same,Western blot p41 (band intensity),HIV p24 and p41; 0.1 μM,0
same,Western blot p24 (band intensity),HIV p24 and p41; 1 μM,0
same,Western blot p41 (band intensity),HIV p24 and p41; 1 μM,0
same,toxicity in a clinical setting,[1],exhibits toxicity
same,EC50,[2],7 nM
same,EC50,HIV (LAV-1),2 nM
same,EC50,Friend (EY-10),4 nM
same,EC50,HIV-1,2 nM
same,EC50,HIV-1 (Strain RF-II),340 nM
Cc1cn([C@H]2C[C@H](N=[N+]=[N-])[C@@H](CO[P@](=O)(O)O[P@](=O)(O)OP(=O)(O)O)O2)c(=O)[nH]c1=O [AZT-TP],Ki,Host cell α-DNA pol [3],230000 nM
same,Ki,HIV RT,40 nM
same,Ratio: Cellular/HIV,Host cell α-DNA pol [4],"5,750"
"CCc1cn([C@H]2C[C@H](N=[N+]=[N-])[C@@H](CO)O2)c(=O)[nH]c1=O [CS-85, 3'-azido-2',3'-dideoxy-5-ethyl-uridine, reference compound]",effect on weight of uninfected BALB/c mice,[5],no significant difference
